Reference: the supplement of paper PMC10627819

Experiments:
[1] = tested on: B. subtilis 168; assay: fitness (endpoint OD595 vs no drug) (fraction); higher = more growth
Outline: (§1)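 Bacterial fitness was scored as optical density at the stationary-phase transition relative to the robust mean of no-drug control wells. Scores are capped at 1. The growth data were OD595 readings every 30 min for 14 h at 37 °C, background-subtracted against the first reading, from 384-well plates inoculated at OD595 0.01 in TSB, LB Lennox or CY.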

[2] = tested on: S. aureus Newman; assay: as above
Outline: as §1

[3] = tested on: S. pneumoniae D39V; assay: as above
Outline: as §1

[4] = tested on: B. subtilis 168; assay: Bliss interaction score (quartile over a dose matrix) (fitness difference); higher = more antagonism (negative = synergy)
Outline: (§2)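 The Bliss score is observed minus expected fitness, where expected fitness is the product of the single-drug fitness values inferred from the combination data. Fitness is the OD595 at the onset of stationary phase over the plate's robust no-drug mean, capped at 1. Scores are summarised by quartiles over technical, biological and donor/recipient replicates.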

[5] = tested on: S. aureus DSM 20231; assay: as above
Outline: as §2

[6] = tested on: S. aureus Newman; assay: as above
Outline: as §2

[7] = tested on: S. pneumoniae D39V; assay: as above
Outline: as §2
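Wherever Bliss interaction score (quartile over a dose matrix) is given: first quartile when negative (synergy) and third quartile when positive (antagonism).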
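Wherever fitness (endpoint OD595 vs no drug) is given: OD595 on entry to stationary phase over no-drug wells; at most 1.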

CO/N=C(\C(=O)N[C@@H]1C(=O)N2C(C(=O)O)=C(COC(C)=O)CS[C@H]12)c1csc(N)n1 [Cefotaxime] + CN(C)c1cc(NC(=O)CNC(C)(C)C)c(O)c2c1C[C@H]1C[C@H]3[C@H](N(C)C)C(O)=C(C(N)=O)C(=O)[C@@]3(O)C(O)=C1C2=O [Tigecycline]
fitness, one replicate
Conditions | partner 0.039 µg/mL | partner 0.078 µg/mL | partner 0.125 µg/mL | partner 0.156 µg/mL | partner 0.25 µg/mL | partner 0.5 µg/mL
[1], first compound 0.00775 µg/mL | 0.83 | 0.784 | – | 0.811 | – | –
[1], first compound 0.0155 µg/mL | 0.696 | 0.677 | – | 0.621 | – | –
[1], first compound 0.031 µg/mL | 0.476 | 0.528 | – | 0.589 | – | –
[1], first compound 0.0625 µg/mL | – | – | 0.623 | – | 0.513 | 0.573
[1], first compound 0.125 µg/mL | – | – | 0.457 | – | 0.4 | 0.406
[1], first compound 0.25 µg/mL | – | – | 0.307 | – | 0.237 | 0.252
[2], first compound 0.039 µg/mL | 0.709 | 0.781 | – | 0.776 | – | –
[2], first compound 0.625 µg/mL | 0.0125 | 0.0197 | – | 0.0212 | – | –
[2], first compound 1.25 µg/mL | 0.0613 | 0.0298 | – | 0.023 | – | –
[2], first compound 2.5 µg/mL | 0.0425 | 0.0445 | – | 0.0375 | – | –

Conditions | fitness
[1], first compound 0.5 µg/mL, partner 0.039 µg/mL | 0.231
[1], first compound 0.5 µg/mL, partner 0.078 µg/mL | 0.198
[1], first compound 0.5 µg/mL, partner 0.156 µg/mL | 0.234
[1], first compound 1 µg/mL, partner 0.039 µg/mL | 0.0778
[1], first compound 1 µg/mL, partner 0.078 µg/mL | 0.092
[1], first compound 1 µg/mL, partner 0.156 µg/mL | 0.109
[1], first compound 2 µg/mL, partner 0.039 µg/mL | 0.0602
[1], first compound 2 µg/mL, partner 0.078 µg/mL | 0.0925
[1], first compound 2 µg/mL, partner 0.156 µg/mL | 0.101
[2], first compound 0.078 µg/mL, partner 0.039 µg/mL | 0.706
[2], first compound 0.078 µg/mL, partner 0.078 µg/mL | 0.777
[2], first compound 0.078 µg/mL, partner 0.156 µg/mL | 0.767
[2], first compound 0.156 µg/mL, partner 0.039 µg/mL | 0.655
[2], first compound 0.156 µg/mL, partner 0.078 µg/mL | 0.701
[2], first compound 0.156 µg/mL, partner 0.156 µg/mL | 0.714
[2], first compound 0.312 µg/mL, partner 0.039 µg/mL | 0.427
[2], first compound 0.312 µg/mL, partner 0.078 µg/mL | 0.434
[2], first compound 0.312 µg/mL, partner 0.156 µg/mL | 0.422
[3], first compound 0.0018 µg/mL, partner 0.325 µg/mL | 0.978
[3], first compound 0.0018 µg/mL, partner 0.65 µg/mL | 0.936
[3], first compound 0.0018 µg/mL, partner 1.3 µg/mL | 0.993
[3], first compound 0.0018 µg/mL, partner 2.6 µg/mL | 0.92
[3], first compound 0.0035 µg/mL, partner 0.325 µg/mL | 0.957
[3], first compound 0.0035 µg/mL, partner 0.65 µg/mL | 0.903
[3], first compound 0.0035 µg/mL, partner 1.3 µg/mL | 0.954
[3], first compound 0.0035 µg/mL, partner 2.6 µg/mL | 0.88
[3], first compound 0.007 µg/mL, partner 0.325 µg/mL | 0.918
[3], first compound 0.007 µg/mL, partner 0.65 µg/mL | 0.849
[3], first compound 0.007 µg/mL, partner 1.3 µg/mL | 0.896
[3], first compound 0.007 µg/mL, partner 2.6 µg/mL | 0.774

Conditions | Bliss interaction score
[4] | 0.0544
[5] | 0.0485
[6] | -0.0426
[7] | -0.0363
